Blank lines part the entries; values can stand above or below the compound they belong to.
Assays:
[1] = 1,2-dichloroethane, background statement; cited from earlier work
[2] = 1,2-dichloroethane, background statement; cited from earlier work; remark: listed apart in the source
[3] = Photoluminescence quantum yield determination; assay type: physicochemical
Procedure: For the photoluminescence spectroscopy, all emission spectra were acquired on a Horiba Scientific PTI QuantaMaster fluorometer. Low temperature emission spectra were recorded by adding samples in 1:1 DCM:toluene into quartz EPR tubes and lowering the tube into an optical dewar filled with liquid N2. Excitation emission matrices were acquired on a Horiba Scientific Fluorolog-3 spectrofluorometer.
The samples, sealed in NMR tubes, were individually placed in an integrating sphere (Thorlabs, IS200-4) with a PbSe detector (Thorlabs, PDA20H) on one port and directly excited by an 808 nm diode laser (Thorlabs, M9-808-0150) of 15 W/cm^2 average intensity under 1 kHz square-wave modulation. The detector signal S, with and without a silicon window on the detector port, was recorded with the sample and with a DCM blank. […] The photoluminescence quantum yield is therefore SS,Si/(SD−SS)×( ? 808/ ? λS)×T^−1 where the subscripts S, D and Si respectively denote the sample, DCM blank, and silicon window. R is the wavelength-dependent PbSe detector responsivity, T is the total emission power transmitted by the silicon window, and λS is the average emission wavelength determined by integration of the spectrum. The detector responsivity is linear with wavelength in this spectral range so that ? 808/ ? λS=808/λS. Due to the spectral overlap between the sample emission and the soft absorption edge of silicon, we calculate T explicitly as ∫E(λ)dλ×
where E(λ) is the normalized sample emission spectrum and T(λ) is the T(λ) normalized silicon window transmission spectrum.
Comparative results for the diradical dication PtTTFtt against a conventional near IR dye (IR 26) provide PLQY of 0.09% in oxygenated 1,2-dichloroethane for compound 2 (PtTTFtt) in comparison to 0.05% for IR 26, as illustrated in FIG. 10.

[4] = Cell viability assay after 72 hr treatment; assay type: cell-based; conditions: 1% DMSO solution, preliminary
Source text: FIG. 21 is a cell viability assay of compound 4 after 72 hr treatment, using 1% DMSO solution in accordance with certain disclosed embodiments.

[5] = Reactivity in the presence of small nucleophiles and ubiquitin (preliminary proteomics studies); conditions: ubiquitin
[6] = Stability of compound 4 (irradiation, air, serum, buffer, water); assay type: physicochemical

Compound: ClC1=C(/C=C/c2cc(-c3ccccc3)[s+]c3ccccc23)CCC/C1=C\C=C1/C=C(c2ccccc2)Sc2ccccc21.[O-][Cl+3]([O-])([O-])[O-] [IR 26, 4-(7-(2-phenyl-4H-1-benzothiopyran-4-ylidene)-4-chloro-3,5-trimethylene-1,3,5-heptatrienyl)-2-phenyl-1-benzothiopyrylium perchlorate]
PLQY [1]: 0.05%
emission [2]: around 1130 nm
photoluminescence quantum yield (PLQY) ([3]; oxygenated 1,2-dichloroethane): 0.05%

integrity after exposure to proteins and small nucleophiles [5]: remains intact
stability to air, fetal bovine serum and phosphate buffer [6]: demonstrated
persistence of photoluminescence ([6]; continuous irradiation): 21 h
stability to water and air ([6]; crystallized out of 1:2 MeCN:water over 6 months): remarkable stability
Compound: (Pt{1,5-cyclooctadiene})2 tetrathiafulvalene-2,3,6,7 tetrathiolate diradical dication [Compound 4]
toxicity [4]: nontoxic

photoluminescence quantum yield (PLQY) ([3]; 57 μM, dichloromethane, 298K, anaerobic conditions, highest of compounds 1-3): 0.43%
Compound: [(Pt{P(4-CF3Ph)3}2)2TTFtt][BAr^F4]2 [Compound 3]

photoluminescence quantum yield (PLQY) ([3]; oxygenated 1,2-dichloroethane): 0.09%
Compound: [(Pt{dppe})2TTFtt][BAr^F4]2 [Compound 2]

— patent publication US20250319211A1, “NEAR IR LUMINESCENCE AND OPTICALLY ADDRESSABLE QUANTUM SENSING AND MAGNETIC IMAGING WITH RADICALOID TETRATHIAFULVALENE TETRATHIOLATES” (The University of Chicago, priority 2022, published 2025)
